From PubChem BioAssay (NCI)
Several values for one entry are separate records, joined by “and”; a condition that tells them apart may be missing. Equal entries are not always repeated.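 How tested: cells in 96-well plates exposed to compound for 48 hours at five concentrations. Abbreviation: GI50, concentration required for 50% inhibition of growth. The concentration for full growth arrest is given as TGI.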

System: MDA-MB-468 breast
Test: inhibition of tumour cell growth, NCI panel, 48 h

C#C[C@]1(O)CC[C@H]2[C@@H]3CC=C4c5sc(-c6ccc(C)cc6)nc5CC[C@]4(C)[C@H]3CC[C@@]21C
GI50: > 100 µM | TGI: > 100 µM

Cc1c(O)cccc1C(=O)N[C@@H](CSc1ccccc1)[C@H](O)CN1C[C@H]2CCCC[C@H]2C[C@H]1C(=O)NC(C)(C)C
GI50: 3.89 µM | TGI: 15.2 µM

COc1cccc2nc(Nc3cccc(NC(=O)c4ccc(N5CCN(C)CC5)c(C(F)(F)F)c4)c3)ccc12
GI50: 1.11 µM | TGI: 3.65 µM

C[C@@]12CC[C@@H](O)C[C@@H]1CC[C@H]1[C@H]2CC[C@@]2(C)[C@H](c3ccc(=O)oc3)CC[C@@]12O
GI50: 0.0278 µM | TGI: 0.0811 µM

CCN1C(=O)/C(=c2\sc3n(c2=O)C2C(NN=3)N(CC)C(=O)N2CC)c2ccccc21 (stereo not drawn)
GI50: 0.336 µM | TGI: 8.33 µM

O=C1c2ccccc2C(=O)c2c1oc1cc(O)c(Cl)cc21
GI50: 1.13 µM | TGI: 7.23 µM

COc1ccc(-c2cc(=O)c3c(OC)c4ccoc4c(/C=C/C=O)c3o2)cc1
GI50: 3.58 µM | TGI: 14.4 µM

Cc1ccc(NC(=S)NNC(=S)Nc2ccc(C)cc2)cc1
GI50: 2.82 µM | TGI: 7.58 µM

CS(=O)(=O)Nc1cc(-c2ccc3ncc(C#N)c(Nc4ccc(F)c(Cl)c4)c3c2)cnc1Cl
GI50: 0.0676 µM | TGI: 0.396 µM

COc1ccccc1CNCCCN1C(=O)c2ccc3c4c(ccc(c24)C1=O)C(=O)N(CCCNCCCCNCCCN)C3=O
GI50: 0.131 µM | TGI: 0.273 µM

c1cc[n+](Cc2c3ccccc3cc3c2ccc2ccccc23)cc1
GI50: 0.426 µM | TGI: 2.68 µM

CS(=O)(=O)N1CCC(Nc2ncc(C(=O)c3c(F)cccc3F)c(N)n2)CC1
GI50: 12.4 µM | TGI: > 25 µM

CC(C)c1cnc(-c2cc(Cl)ccc2F)cc1Nc1ccncc1C(=O)NC(CO)CO
GI50: 8.35 µM | TGI: 32.7 µM

CC[C@]12C=CCN3CC[C@@]4(c5ccc(OC)cc5N(C)[C@H]4[C@@](O)(C(=O)OC)[C@@H]1OC(=O)CCC(=O)O[C@H]1CC[C@H]4[C@@H]5CCC6=CC(=O)CC[C@@H]6[C@H]5CC[C@]14C)[C@@H]32
GI50: 1.42 µM | TGI: 5.9 µM

Clc1nc(Cl)c2ncn(-c3ccccc3)c2n1
GI50: 2.71 µM | TGI: 8.39 µM

CCN1CCN(Cc2ccc(Nc3ncc(F)c(-c4cc(F)c5nc(C)n(C(C)C)c5c4)n3)nc2)CC1
GI50: 6.95 µM | TGI: 14 µM

COc1cc(C)c(-c2ccc(OC)c(=O)cc2C)c(OC)c1OC
TGI: > 100 µM

O=C1/C(=C/c2ccc(Cl)cc2)CN(Cc2cn(CCCNc3ccnc4cc(Cl)ccc34)nn2)C/C1=C\c1ccc(Cl)cc1
GI50: 1.4 µM | TGI: 3.5 µM

Cc1[nH]c(C(=O)Nc2cccc(OC3CCNCC3)c2)c(Cl)c1Cl
GI50: 1.87 µM | TGI: 3.68 µM

COc1cccc(C(=O)NNc2nc(Cl)nc(N3CCN(C(c4ccccc4)c4ccccc4)CC3)n2)c1
GI50: 2.4 µM | TGI: 8.11 µM

CCOc1cc(Cl)c(C(C)NC(=O)c2cccc(OC)c2)cc1OCC (stereo not drawn)
GI50: 3.38 µM | TGI: 64.6 µM

Nc1c(C(=O)Nc2cccc(Cl)c2)sc2nc3c(cc12)C(O)CCC3 (stereo not drawn)
GI50: 0.257 µM | TGI: 15.2 µM

CS(=O)(=O)c1nccc(-c2c(-c3ccc(F)c(OCCc4ccccc4)c3)nc3sccn23)n1
GI50: 2.57 µM | TGI: 7.36 µM

CCN1CCN(Cc2ccc(NC(=O)Nc3nc(-c4cc(OC)c(OC)c(OC)c4)cs3)cc2C(F)(F)F)CC1
GI50: 1.43 µM | TGI: 3.03 µM

COc1cc2c(Nc3ccc(-c4ccc(N)cc4)cc3)ncnc2c(OC)c1OC
GI50: 11.2 µM | TGI: 49 µM

COc1ccc(-c2nc3sccn3c2-c2ccnc(NCCNS(=O)(=O)c3ccc(C(F)(F)F)cc3)n2)cc1
GI50: 1.19 µM | TGI: 7.62 µM

COc1ccc(N=Nc2ccc(O)c(=O)cc2)cc1
GI50: 2.61 µM | TGI: 18.7 µM

C[n+]1cccc(NC(=O)c2ccc3ccc4ccc(C(=O)Nc5ccc[n+](C)c5)nc4c3n2)c1
GI50: 0.252 µM | TGI: 1.29 µM

Nc1nc2ccc(CNc3ccc(C(=O)NC(CC(=O)O)C(=O)O)cc3)cc2c(=O)[nH]1 (stereo not drawn)
GI50: 9.09 µM | TGI: > 100 µM

COc1ccc(OC)c(C2=C(c3cn(C)c4ccccc34)C(=O)NC2=O)c1
GI50: > 25 µM | TGI: > 25 µM

CC1(C)CC[C@]23CC[C@]4(C)[C@H](CC[C@@H]5[C@@]6(C)CCCNC(C)(C)[C@@H]6CC[C@]54C)[C@H]2[C@H]1OC3
GI50: 1.61 µM | TGI: 3.45 µM

CC[C@]12C=CCN3CC[C@]4(C(=C(C(=O)OC)C1)Nc1cc5c(cc14)[C@@H]1[C@H](O5)[C@@H](O)[C@@]4(CC)CC(C(=O)OC)=C5Nc6ccccc6[C@@]56CCN1[C@@H]46)[C@@H]32
GI50: 0.147 µM and 0.183 µM | TGI: 1.54 µM and 1.62 µM

NS(=O)(=O)c1ccc(N=Nc2c(O)[nH]c3ccc(C(=O)NCCCn4ccnc4)cc23)cc1
GI50: > 25 µM | TGI: > 25 µM

ClC(Cl)c1nc(-c2ccco2)n2nc(-c3ccccc3)cc2n1
GI50: 0.322 µM | TGI: 1.15 µM

CC(=O)Oc1ccc(C2OC(c3ccc4ccccc4c3OC(C)=O)=NN2C(C)=O)c(OC(C)=O)c1 (stereo not drawn)
GI50: 0.401 µM | TGI: 3.22 µM

CSC1=CC(=O)c2ccccc2C1=O
GI50: 0.26 µM | TGI: 1.09 µM

O=C(/C=C(/C=C/c1cccc2[nH]ccc12)OB(F)F)/C=C/c1cccc2[nH]ccc12
GI50: 0.473 µM | TGI: 3.12 µM

CC1(C)N=C(N)N=C(N)N1c1ccc(OCC(=O)Nc2ccc(S(=O)(=O)F)cc2Cl)c(Cl)c1
GI50: 1.84 µM | TGI: > 100 µM

Nc1nc(N)c2cc(S(=O)(=O)c3ccc4ccccc4c3)ccc2n1
GI50: 2.43 µM | TGI: > 100 µM

C=C(C(=O)c1ccccc1)C(NC(C)(C)C)c1ccccc1 (stereo not drawn)
GI50: 0.566 µM | TGI: 1.96 µM

COc1cc(/C=C2\CCC/C(=C\c3cc(CN4CCCC4)c(O)c(OC)c3)C2=O)cc(CN2CCCC2)c1O
GI50: 1.7 µM | TGI: 4.07 µM

CN1C(=O)C(N=Nc2ccc([N+](=O)[O-])cc2)SC1=S (stereo not drawn)
GI50: 4.33 µM and 9.92 µM | TGI: 30.6 µM and 56.6 µM

O=C(O)c1ccc(CSc2nc3ccccc3[nH]2)cc1
GI50: > 100 µM | TGI: > 100 µM

CCCCCCCCCCCCCCCC(=O)NS(=O)(=O)OC[C@H]1O[C@@H](n2cnc3c(N)ncnc32)[C@H](O)[C@@H]1O
GI50: < 0.0328 µM

Cc1ccc(C2=NN(c3ccc(S(=O)(=O)NC(=O)NCc4ccccc4)cc3)C(c3ccc(N(C)C)cc3)C2)c(C)c1 (stereo not drawn)
GI50: 2.36 µM | TGI: 6.11 µM

CC(C)C[C@H](NC(=O)[C@@H](Cc1ccccc1)n1ccc(Nc2ccccc2)cc1=O)B(O)O
GI50: 0.236 µM | TGI: 1.29 µM

Cc1nc2ccc(-n3ncc(C(=O)c4cc5ccccc5[nH]4)c3N)cc2[nH]1
GI50: 12.5 µM | TGI: 43.2 µM

NC(=O)c1c[nH]c2ncnc(N)c12
GI50: 18.8 µM | TGI: 90.1 µM

COc1ccc2[nH]c(C(=O)OCc3ccc4c(Br)cc(Br)c(O)c4n3)cc2c1
GI50: 0.822 µM | TGI: 2.46 µM

CCc1ccc(Oc2c(-c3ccc(OCCc4cccc(C(F)(F)F)c4)cc3O)n[nH]c2C(F)(F)F)cc1
GI50: 1.87 µM | TGI: 7.96 µM

Cn1cc(-c2csc(-c3ccccc3)n2)c2cccnc21
GI50: 14.2 µM | TGI: 48.4 µM

O=S(=O)(NCCNc1nccc(-c2c(-c3ccc(F)cc3)nc3sccn23)n1)c1ccc(O)cc1
GI50: 3.37 µM | TGI: 48.2 µM

CC(C)n1cc(-c2ccc3c(c2)N(C)CC3)c2c(NS(=O)(=O)c3ccn(C)n3)ccnc21
GI50: 41.1 µM | TGI: > 100 µM

CC(C)[C@@]12C[C@@H](OC(=O)COC(=O)c3ccccc3)[C@@](C)(O1)[C@@H]1CC[C@@H](C)[C@H]1[C@@H]2OC(=O)/C=C/c1ccccc1
GI50: > 81.2 µM | TGI: > 100 µM

Cn1c2c(c3ccccc31)CCN1C[C@@H]3CCCC[C@H]3C[C@@H]21
GI50: 1.77 µM | TGI: 8.73 µM
